According to patent EP1531819B1, “USE OF I kappa B KINASE INHIBITORS FOR THE TREATMENT OF PAIN” (Sanofi-Aventis Deutschland GmbH, priority 2002, dated 2004):

Key:
[1] = tested on: Zymosan-induzierte Pfotenentzündung bei der Ratte; experiment: Model 1b: zymosan-induced paw inflammation, paw withdrawal threshold on mechanical stimulation (von Frey Test); assay type: in vivo
[2] = tested on: Zymosan-induzierte Pfotenentzündung bei der Ratte; experiment: Model 1a: zymosan-induced paw inflammation, paw withdrawal latency on thermal stimulation (Hargreaves Test); assay type: in vivo
[3] = tested on: Kaolin/Carrageenan induzierte Kniegelenksentzündung bei der Ratte; experiment: Model 2: kaolin/carrageenan-induced knee joint inflammation, responses of spinal neurons to pressure on the knee; assay type: in vivo
Text: Modell: Zymosan-induzierte Pfotenentzündung bei der Ratte; Parameter: Pfotenwegziehzeit oder Pfotenwegziehschwelle bei thermischer oder mechanischer Stimulation der Hinterpfote. • 2. Modell: Kaolin/Carrageenan induzierte Kniegelenksentzündung bei der Ratte; Parameter: Reaktion spinaler Neurone bei Druckreizung des Knies.
Versuchsdurchführung: Bei Ratten wurde in Trapanal-Narkose der Wirbelkanal eröffnet und Rückenmarksneurone, die "Schmerzimpulse" aus dem Kniegelenk verarbeiteten, identifiziert. Nach Identifizierung wurde eine Langzeitableitung durchgeführt, in der die Aktivität der Nervenzelle vor und während der Entwicklung einer akuten Entzündung im Kniegelenk registriert wurde. Dazu wurden in einer Kontrollperiode vor Induktion der Entzündung und nach Induktion der Entzündung für mehrere Stunden die Antworten auf nicht noxische und noxische Reizung am Kniegelenk gemessen.
Die akute Entzündung wurde durch die intraartikuläre Injektion einer Kaolin und Carrageenan Suspension (etwa 150 µl) induziert. In Kontrollexperimenten wurde nur das Vehikel auf die Rückenmarksoberfläche aufgebracht, um die Entwicklung der Übererregbarkeit unter Kontrollbedingungen darzustellen. In der Regel fand diese Entwicklung der Übererregbarkeit innerhalb von 2 bis 4 Stunden statt, und sie äußerte sich in einer starken Zunahme der Antworten auf nicht noxische und noxische Reizung des Kniegelenks (Tab. 3). […] Dann wurden die Antworten der Zelle auf nichtnoxische und noxische Reizung wie in den Kontrollexperimenten weiter verfolgt.

[4] = tested on: Zymosan-induzierte Pfotenentzündung bei der Maus; experiment: Model 3: zymosan-induced paw inflammation, paw withdrawal latency on thermal stimulation (Hargreaves Test), AUC; assay type: in vivo; details: for Statistischer Unterschied gegenüber Vehikel: thermische Hyperalgesie AUC; for AUC Mittelwert [Maß für Hyperalgesie]: thermische Hyperalgesie
Method: Parameter: Pfotenwegziehzeit bei thermischer Stimulation der Hinterpfote. Versuchsdurchführung: In Kurzzeitnarkose mit Isofluran wurde dem Versuchstier 25 μl einer Suspension, die 50 mg/ml Zymosan enthielt, in die rechte Hinterpfote injiziert. Dann wurde die […] quantitativ wie folgt bestimmt: Bestimmung der Pfotenwegziehzeit bei thermischer Stimulation (Hargreaves Test; s.o.). Das Versuchstier wurde in […] Versuchstier nach der Erkundungsphase (etwa 5 min) nicht mehr bewegte, wurde […] zu stimulierenden Hinterpfote positioniert und […]. Die […] ab, so dass die Hauttemperatur […] linear […] Pfote […] ab. Die Pfotentemperatur zum Zeitpunkt des Wegziehens ist für das Tier gerade eben unangenehm, […] von thermischer Schmerzschwelle. Kurz vor Zymosan-Injektion und für 7 bis 14 Tage nach Injektion wurde […] an der rechten und linken Hinterpfote bestimmt. Anschließend wurde […] Integral der Fläche, die aus […] und […] Pfote gebildet wurde, bestimmt (AUC, area between the curves, s. Tabellen 5 und 6). Je größer dieser Wert ist, umso […], und je kleiner der Wert bei Tieren, die die Substanz erhalten, desto stärker ist der Therapieerfolg. In einer 7-Tage Studie induzierte die Zymosan Injektion in […], Tab. 5). In den anderen Gruppen wurde die Substanzgabe einen Tag nach Zymosan Injektion, […] schon […]. […] Die […] Studie (7 Tage) ergab, dass die AUC unter Substanzgabe dosisabhängig abnahm. […] In einer parallel […] von Tieren wurde Paracetamol in einer sehr hohen Dosis ebenfalls zweimal am Tag verabreicht. […] Paracetamol (Tab. 5). […] […] Zymosan Injektion und Dosierschema […] zuvor beschriebenen Studie. Einziger Unterschied war, dass die weitere Studie über 14 Tage lief.

[5] = tested on: Zymosan-induzierte Pfotenentzündung bei der Maus; experiment: Model 4: zymosan-induced paw inflammation, spontaneous running wheel performance, AUC; assay type: in vivo, C57/B6 Mäuse; details: for AUC Mittelwert (Laufradaktivität): 7 days after Zymosan; for Statistischer Unterschied gegenüber Vehikel: Laufradaktivität AUC
Text: Das Versuchstier hat in seinem Haltungskäfig Zugang zu einem Laufrad, dessen Umdrehungen elektronisch registriert werden. Die C57/B6 Mäuse benutzen in den Nachtstunden freiwillig das Laufrad und legen im Mittel nach einer einwöchigen Gewöhnungsphase 4100 Meter/Nacht zurück. Nach Zymosan Injektion ist die nächtliche Laufstrecke verkürzt. Diese Abnahme der Laufleistung gilt als Parameter für entzündungsschmerzbedingte Funktionseinschränkung. Versuchsdurchführung: Die Laufstrecke/24 Std. wurde nach einer Eingewöhnungsphase eine Woche lang zur Bestimmung der Baseline gemessen. Dann wurde in Kurzzeitnarkose mit Isofluran dem Versuchstier 25 µl einer Suspension, die […] Zymosan enthielt, in die rechte Hinterpfote injiziert. Anschließend wurde Laufstrecke/24 Std. während der nächsten sieben Tage ermittelt. In der Auswertung wurde die Fläche unter der Kurve der Laufstreckenwerte bestimmt (AUC, Tab. 7): je kleiner die AUC, desto geringer die Laufleistung in der Woche nach Zymosan Injektion. […] Die Substanzgabe wurde am Tag 1 nach Zymosan Injektion begonnen.

[6] = je 30 mg/kg i.p. (x3), 0,5 h nach Zymosan-Injektion
[7] = je 30 mg/kg i.p. (x3), 1 h nach Zymosan-Injektion
[8] = je 30 mg/kg i.p. (x3), 2 h nach Zymosan-Injektion
[9] = je 30 mg/kg i.p. (x3), 3 h nach Zymosan-Injektion
[10] = je 30 mg/kg i.p. (x3), 4 h nach Zymosan-Injektion
[11] = je 30 mg/kg i.p. (x3), 5 h nach Zymosan-Injektion
[12] = je 30 mg/kg i.p. (x3), 6 h nach Zymosan-Injektion
[13] = je 30 mg/kg i.p. (x3), 7 h nach Zymosan-Injektion
[14] = je 30 mg/kg i.p. (x3), 24 h nach Zymosan-Injektion
[15] = je 30 mg/kg i.p. (x3), Baseline -0,5 h
[16] = etwa 30 µl of 10 µM Lösung on the spinal cord, 30-60 min nach K/C-Injektion
[17] = etwa 30 µl of 10 µM Lösung on the spinal cord, 60-120 min nach K/C-Injektion
[18] = etwa 30 µl of 10 µM Lösung on the spinal cord, 120-180 min nach K/C-Injektion
[19] = etwa 30 µl of 10 µM Lösung on the spinal cord, 180-240 min nach K/C-Injektion
[20] = etwa 30 µl of 10 µM Lösung on the spinal cord, Baseline
[21] = 7 days, 2.8 mg/kg oral twice daily
[22] = 7 days, 25 mg/kg oral twice daily
[23] = 7 days, 75 mg/kg oral twice daily

## CNc1nccc(-c2cc3cc(C(=O)N[C@@H](CN(c4ccccc4)c4ccccc4)c4n[nH]c(=O)o4)ccc3[nH]2)n1 [Verbindung 13, 2-(2-Methylamin-pyrimidin-4-yl)-1H-indol-5-carbonsäure [(S)-2-diphenylamin-1-(5-oxo-4,5-dihydro-[1,3,4]oxadiazol-2-yl)-ethyl]-amid]
[1]; je 30 mg/kg i.p. (x3)
  mechanische Hyperalgesie: signifikant reduziert
  mechanische Hyperalgesie, duration of effect nach der letzten Substanzgabe: ≥ 18 Std.
  mechanische Hyperalgesie, onset of effect nach Zymosan Injektion: 1 Stunde
[1]; [6]
  Veränderung der Pfotenwegziehschwelle (%) Mittelwert: -37,4%
[1]; [7]
  Veränderung der Pfotenwegziehschwelle (%) Mittelwert: -43,1%
[1]; [8]
  Veränderung der Pfotenwegziehschwelle (%) Mittelwert: -36,0%
[1]; [9]
  Veränderung der Pfotenwegziehschwelle (%) Mittelwert: -35,1%
[1]; [10]
  Veränderung der Pfotenwegziehschwelle (%) Mittelwert: -46,7%
[1]; [11]
  Veränderung der Pfotenwegziehschwelle (%) Mittelwert: -40,6%
[1]; [12]
  Veränderung der Pfotenwegziehschwelle (%) Mittelwert: -33,1%
[1]; [13]
  Veränderung der Pfotenwegziehschwelle (%) Mittelwert: -44,7%
[1]; [14]
  Veränderung der Pfotenwegziehschwelle (%) Mittelwert: -9,7%
[1]; [15]
  Veränderung der Pfotenwegziehschwelle (%) Mittelwert: 0,0%
[2]; comparison data from an earlier study
  thermische Hyperalgesie, comparison with Diclofenac: erheblich stärker reduziert als das NSAID Diclofenac
[2]; je 30 mg/kg i.p. (x3)
  thermische Hyperalgesie, duration of effect nach der letzten Substanzgabe: > 18 Std.
[2]; [6]
  Veränderung der Pfotenwegziehzeit (%) Mittelwert: -16,6%
[2]; [7]
  Veränderung der Pfotenwegziehzeit (%) Mittelwert: -31,3%
[2]; [8]
  Veränderung der Pfotenwegziehzeit (%) Mittelwert: -30,2%
[2]; [9]
  Veränderung der Pfotenwegziehzeit (%) Mittelwert: -15,3%
[2]; [10]
  Veränderung der Pfotenwegziehzeit (%) Mittelwert: -16,0%
[2]; [11]
  Veränderung der Pfotenwegziehzeit (%) Mittelwert: -9,7%
[2]; [12]
  Veränderung der Pfotenwegziehzeit (%) Mittelwert: 5,0%
[2]; [13]
  Veränderung der Pfotenwegziehzeit (%) Mittelwert: 3,4%
[2]; [14]
  Veränderung der Pfotenwegziehzeit (%) Mittelwert: -3,8%
[2]; [15]
  Veränderung der Pfotenwegziehzeit (%) Mittelwert: 0,0%
[2]; je 30 mg/kg i.p., after the third dose
  thermische Hyperalgesie, Seitenunterschied in der Pfotenwegziehzeit: überhaupt kein Seitenunterschied in der Pfotenwegziehzeit mehr zu finden
[2]; je 30 mg/kg i.p., from two hours after Zymosan Injektion
  thermische Hyperalgesie compared with Kontrollgruppe: geringer ausgeprägt als in der Kontrollgruppe
[3]; comparison with published data of an earlier study
  Wirkung auf die Antworten auf noxische Kniegelenksstimulation, comparison with Indomethacin: insgesamt stärker ausgeprägt als die Wirkung von Indomethacin
[3]; etwa 30 µl of 10 µM Lösung on the spinal cord
  Entwicklung der spinalen Übererregbarkeit gegenüber den Kontrollen: beinahe vollständig unterdrückt
[3]; [16]
  Neuronale Antworten vor und während Kniegelenksentzündung, Nicht-noxische Reizung am Kniegelenk, Mittelwert: 8,66 imp/15s
  Neuronale Antworten vor und während Kniegelenksentzündung, Noxische Reizung am Kniegelenk, Mittelwert: 62,3 imp/15s
[3]; [17]
  Neuronale Antworten vor und während Kniegelenksentzündung, Nicht-noxische Reizung am Kniegelenk, Mittelwert: 2,71 imp/15s
  Neuronale Antworten vor und während Kniegelenksentzündung, Noxische Reizung am Kniegelenk, Mittelwert: 26,9 imp/15s
[3]; [18]
  Neuronale Antworten vor und während Kniegelenksentzündung, Nicht-noxische Reizung am Kniegelenk, Mittelwert: 11,16 imp/15s
  Neuronale Antworten vor und während Kniegelenksentzündung, Noxische Reizung am Kniegelenk, Mittelwert: 8,5 imp/15s
[3]; [19]
  Neuronale Antworten vor und während Kniegelenksentzündung, Nicht-noxische Reizung am Kniegelenk, Mittelwert: 39,78 imp/15s
  Neuronale Antworten vor und während Kniegelenksentzündung, Noxische Reizung am Kniegelenk, Mittelwert: 19,5 imp/15s
[3]; [20]
  Neuronale Antworten vor und während Kniegelenksentzündung, Nicht-noxische Reizung am Kniegelenk, Mittelwert: 0,92 imp/15s
  Neuronale Antworten vor und während Kniegelenksentzündung, Noxische Reizung am Kniegelenk, Mittelwert: 0,8 imp/15s
[4]; 7-day study, twice daily
  thermische Hyperalgesie, comparison with Paracetamol: stärker als Paracetamol
[4]; 14-day study, high dose (25 mg/kg)
  Effekte on thermische Hyperalgesie in der hohen Dosierung: gleich stark
[4]; 168 h, 7-day study, oral twice daily, read-out: Einzeldosis from which Therapieerfolg signifikant gegenüber der Vehikelgruppe
  minimal effective dose: ≥ 8.3 mg/kg
[4]; [21]
  Statistischer Unterschied gegenüber Vehikel: nein
[4]; [22]
  Statistischer Unterschied gegenüber Vehikel: ja
[4]; [23]
  Statistischer Unterschied gegenüber Vehikel: ja
[4]; 14 days, 25 mg/kg twice daily
  Statistischer Unterschied gegenüber Vehikel: ja
[4]; 7 days after Zymosan, 2.8 mg/kg oral twice daily
  AUC Mittelwert [Maß für Hyperalgesie]: 40.4
[4]; 7 days after Zymosan, 25 mg/kg oral twice daily
  AUC Mittelwert [Maß für Hyperalgesie]: 19.4
[4]; 7 days after Zymosan, 75 mg/kg oral twice daily
  AUC Mittelwert [Maß für Hyperalgesie]: 17.4
[4]; 14 days after Zymosan, 25 mg/kg twice daily
  AUC Mittelwert [Maß für Hyperalgesie]: 47.6
[5]; 2.8 mg/kg oral twice daily
  AUC Mittelwert (Laufradaktivität): 131.1
[5]; 25 mg/kg oral twice daily
  AUC Mittelwert (Laufradaktivität): 216.7
[5]; 75 mg/kg oral twice daily
  AUC Mittelwert (Laufradaktivität): 251.7
[5]; 7 days, twice daily
  Laufleistung nach Zymosan Injektion gegenüber der Vehikelgruppe: dosisabhängige Steigerung der Laufstrecke
[5]; [21]
  Statistischer Unterschied gegenüber Vehikel: nein
[5]; [22]
  Statistischer Unterschied gegenüber Vehikel: ja
[5]; [23]
  Statistischer Unterschied gegenüber Vehikel: ja
